Assay results as given in PubChem BioAssay AID248 (DTP/NCI, 2004).
Values joined by “and” are separate entries in the source; they are usually repeats but may differ in a detail not shown here. Equal entries are not always repeated. Toxic doses and inconclusive results are not listed. Cut-off read from the data, not from the text of the source: active = T/C of 150% or more; inactive = T/C below 125%.

Test system: L1210 leukemia ip in BDF1 mice, survival T/C
Assay: NCI In Vivo Anticancer Drug Screen. Data for tumor model L1210 Leukemia (intraperitoneal) in B6D2F1 (BDF1) mice
Conditions: endpoint: mean survival time, higher = longer survival
How it was run: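 Each compound was tested against a transplantable tumor grown in mice. The endpoint was survival, with treated animals benchmarked against vehicle controls as a simple ratio.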

[1] = dose: 100.0 mg/kg/injection, schedule: Q01DX001 (ip), vehicle: Klucel (hydroxypropylcellulose) (HPC)
[2] = dose: 200.0 mg/kg/injection, schedule: Q01DX001 (ip), vehicle: Klucel (hydroxypropylcellulose) (HPC)
[3] = dose: 50.0 mg/kg/injection, schedule: Q01DX001 (ip), vehicle: carboxymethylcellulose (CMC)
[4] = dose: 100.0 mg/kg/injection, schedule: Q01DX001 (ip), vehicle: carboxymethylcellulose (CMC)
[5] = dose: 200.0 mg/kg/injection, schedule: Q01DX001 (ip), vehicle: carboxymethylcellulose (CMC)
[6] = dose: 400.0 mg/kg/injection, schedule: Q01DX001 (ip), vehicle: carboxymethylcellulose (CMC)
[7] = dose: 100.0 mg/kg/injection, schedule: Q04DX003 (ip), vehicle: Klucel (hydroxypropylcellulose) (HPC)
[8] = dose: 200.0 mg/kg/injection, schedule: Q04DX003 (ip), vehicle: Klucel (hydroxypropylcellulose) (HPC)
[9] = dose: 400.0 mg/kg/injection, schedule: Q04DX003 (ip), vehicle: Klucel (hydroxypropylcellulose) (HPC)
[10] = dose: 25.0 mg/kg/injection, schedule: Q04DX003 (ip), vehicle: Klucel (hydroxypropylcellulose) (HPC)
[11] = dose: 50.0 mg/kg/injection, schedule: Q04DX003 (ip), vehicle: Klucel (hydroxypropylcellulose) (HPC)
[12] = dose: 400.0 mg/kg/injection, schedule: Q01DX001 (ip), vehicle: Klucel (hydroxypropylcellulose) (HPC)
[13] = dose: 100.0 mg/kg/injection, schedule: Q01DX009 (ip), vehicle: Klucel (hydroxypropylcellulose) (HPC)
[14] = dose: 200.0 mg/kg/injection, schedule: Q01DX009 (ip), vehicle: Klucel (hydroxypropylcellulose) (HPC)
[15] = dose: 400.0 mg/kg/injection, schedule: Q01DX009 (ip), vehicle: Klucel (hydroxypropylcellulose) (HPC)
[16] = dose: 100.0 mg/kg/injection, schedule: Q04DX003 (ip), vehicle: saline with Tween-80
[17] = dose: 200.0 mg/kg/injection, schedule: Q04DX003 (ip), vehicle: saline with Tween-80

Measured: T/C

O=C(O)/C=C\Cc1cccc(=O)[nH]1
inactive: dose: 50.0 mg/kg/injection, schedule: Q01DX001 (ip), vehicle: Klucel (hydroxypropylcellulose) (HPC) 94 % of control | [1] 95 % of control | [2] 97 % of control

O=CN/N=C\c1cc2ccccc2c2ccccc12
inactive: [3] 96 % of control | [4] 93 % of control | [5] 93 % of control | [6] 87 % of control

CC(Oc1ccc([N+](=O)[O-])cc1Cl)C(=O)Nc1ccc(S(=O)(=O)F)cc1 (stereo not given)
inactive: [7] 100 % of control | [8] 100 % of control | [9] 92 % of control

O=S(=O)(OCC1CO1)c1ccc(N=Nc2ccccc2)cc1 (stereo not given)
inactive: dose: 100.0 mg/kg/injection, schedule: Q01DX008 (ip), vehicle: Klucel (hydroxypropylcellulose) (HPC) 98 % of control | dose: 200.0 mg/kg/injection, schedule: Q01DX008 (ip), vehicle: Klucel (hydroxypropylcellulose) (HPC) 90 % of control | dose: 400.0 mg/kg/injection, schedule: Q01DX008 (ip), vehicle: Klucel (hydroxypropylcellulose) (HPC) 96 % of control

Clc1ccc2c(Cl)cc(Cl)nc2c1
inactive: dose: 75.0 mg/kg/injection, schedule: Q01DX001 (ip), vehicle: saline 92 % of control | dose: 300.0 mg/kg/injection, schedule: Q01DX001 (ip), vehicle: saline 87 % of control

Cc1nccn1C
inactive: dose: 100.0 mg/kg/injection, schedule: Q01DX001 (ip), vehicle: saline 101 % of control | dose: 200.0 mg/kg/injection, schedule: Q01DX001 (ip), vehicle: saline 90 % of control | dose: 400.0 mg/kg/injection, schedule: Q01DX001 (ip), vehicle: saline 92 % of control

O=C(NCc1ccccc1)c1ccc(Cl)cc1
inactive: dose: 100.0 mg/kg/injection, schedule: Q04DX003 (ip), vehicle: saline 97 % of control | dose: 200.0 mg/kg/injection, schedule: Q04DX003 (ip), vehicle: saline 97 % of control | dose: 400.0 mg/kg/injection, schedule: Q04DX003 (ip), vehicle: saline 95 % of control

O=C(O)COc1ccc(C(=O)O)cc1
inactive: dose: 100.0 mg/kg/injection, schedule: Q04DX002 (ip), vehicle: Klucel (hydroxypropylcellulose) (HPC) 111 % of control | dose: 200.0 mg/kg/injection, schedule: Q04DX002 (ip), vehicle: Klucel (hydroxypropylcellulose) (HPC) 97 % of control | dose: 400.0 mg/kg/injection, schedule: Q04DX002 (ip), vehicle: Klucel (hydroxypropylcellulose) (HPC) 101 % of control

CC12C=CC(=O)C=C1CCC1C2C(O)CC2(C)C1CCC2(O)C(=O)COC(=O)CCCc1ccc(N(CCCl)CCCl)cc1 (stereo not given)
inactive: dose: 12.5 mg/kg/injection, schedule: Q01DX009 (ip), vehicle: Klucel (hydroxypropylcellulose) (HPC) 116 % of control | dose: 12.5 mg/kg/injection, schedule: Q04DX003 (ip), vehicle: Klucel (hydroxypropylcellulose) (HPC) 97 % of control | dose: 15.0 mg/kg/injection, schedule: Q01DX009 (ip), vehicle: saline with Tween-80 107 % of control | dose: 25.0 mg/kg/injection, schedule: Q01DX009 (ip), vehicle: Klucel (hydroxypropylcellulose) (HPC) 122 % of control | [10] 110 % of control | dose: 30.0 mg/kg/injection, schedule: Q01DX009 (ip), vehicle: saline with Tween-80 114 % of control | dose: 50.0 mg/kg/injection, schedule: Q01DX009 (ip), vehicle: Klucel (hydroxypropylcellulose) (HPC) 124 % of control | [11] 109 % of control | dose: 60.0 mg/kg/injection, schedule: Q01DX009 (ip), vehicle: saline with Tween-80 108 % of control | dose: 75.0 mg/kg/injection, schedule: Q01DX001 (sc), vehicle: steriod suspending solution 103 % of control | dose: 150.0 mg/kg/injection, schedule: Q01DX001 (sc), vehicle: steriod suspending solution 111 % of control | dose: 300.0 mg/kg/injection, schedule: Q01DX001 (sc), vehicle: steriod suspending solution 108 % of control

Cc1ccc(NCS(=O)(=O)O)cc1
inactive: [10] 106 % of control | [11] 103 % of control | [7] 95 % of control and 96 % of control | [8] 100 % of control | [9] 97 % of control

O=C(CSC1=NCCN1)c1ccccc1
inactive: dose: 100.0 mg/kg/injection, schedule: Q01DX009 (ip), vehicle: saline with Tween-80 101 % of control

COc1ccc(S(=O)(=O)F)cc1NC(=O)NCCOc1ccc(-n2cnc3c(=O)[nH]c(N)nc32)cc1
inactive: [1] 102 % of control | [2] 97 % of control | [12] 96 % of control

NC(=O)N/N=C1/CCSc2ccc3c(c21)CCCC3
inactive: [1] 102 % of control | [13] 106 % of control | [2] 93 % of control | [14] 104 % of control | [12] 94 % of control | [15] 101 % of control

O=C(O)c1ccc[n+]([O-])c1
inactive: [16] 100 % of control | [17] 100 % of control

CCOC(=O)C[n+]1ccccc1/C=C/c1ccc(O)cc1
inactive: dose: 9.38 mg/kg/injection, schedule: Q01DX001 (ip), vehicle: other 101 % of control

CN1CCCCC1CCC1c2ccccc2CCc2ccccc21 (stereo not given)
inactive: dose: 1.56 mg/kg/injection, schedule: Q01DX009 (ip), vehicle: saline 104 % of control | dose: 3.12 mg/kg/injection, schedule: Q01DX009 (ip), vehicle: saline 104 % of control | dose: 6.25 mg/kg/injection, schedule: Q01DX009 (ip), vehicle: saline 98 % of control and 99 % of control | dose: 12.5 mg/kg/injection, schedule: Q01DX009 (ip), vehicle: saline 94 % of control and 103 % of control | dose: 25.0 mg/kg/injection, schedule: Q01DX009 (ip), vehicle: saline 107 % of control and 116 % of control

CCOC(=O)C(NC(N)=O)C(=O)OCC
inactive: [13] 95 % of control | [7] 95 % of control | [14] 101 % of control | [8] 97 % of control | [15] 101 % of control | [9] 104 % of control

CC1(C)OC(CI)C(COS(C)(=O)=O)O1 (stereo not given)
inactive: [16] 114 % of control | dose: 115.0 mg/kg/injection, schedule: Q01DX001 (ip), vehicle: steriod suspending solution 97 % of control | dose: 173.0 mg/kg/injection, schedule: Q01DX001 (ip), vehicle: steriod suspending solution 90 % of control | [17] 105 % of control | dose: 400.0 mg/kg/injection, schedule: Q04DX003 (ip), vehicle: saline with Tween-80 111 % of control

N#C/C(=C\c1cccn1Cc1ccc2ccccc2c1)C(N)=O
inactive: dose: 100.0 mg/kg/injection, schedule: Q04DX002 (ip), vehicle: saline with Tween-80 104 % of control | dose: 200.0 mg/kg/injection, schedule: Q04DX002 (ip), vehicle: saline with Tween-80 96 % of control | dose: 400.0 mg/kg/injection, schedule: Q04DX002 (ip), vehicle: saline with Tween-80 93 % of control

COC(=O)c1cccc(OC)c1
inactive: [3] 102 % of control | [4] 98 % of control | [5] 104 % of control | [6] 93 % of control

COC(=O)c1ccc(O)cc1
inactive: dose: 100.0 mg/kg/injection, schedule: Q04DX002 (ip), vehicle: saline 96 % of control | dose: 200.0 mg/kg/injection, schedule: Q04DX002 (ip), vehicle: saline 100 % of control | dose: 400.0 mg/kg/injection, schedule: Q04DX002 (ip), vehicle: saline 100 % of control
